We go through one compound from ChEMBL document CHEMBL5634184, “Direct Inhibition of BK Channels by Cannabidiol, One of the Principal Therapeutic Cannabinoids Derived from Cannabis sativa” (J Nat Prod, 2024).

In experiment [1] the target is T1, Calcium-activated potassium channel subunit alpha-1 (Homo sapiens, UniProt Q12791). Kind of experiment: Inhibition of human KCNMA1 expressed in HEK293 cells assessed as reduction in open probability at 3 uM at -40 mV relative to control. Format: cell-based.
T1 sequence (Q12791 whole entry): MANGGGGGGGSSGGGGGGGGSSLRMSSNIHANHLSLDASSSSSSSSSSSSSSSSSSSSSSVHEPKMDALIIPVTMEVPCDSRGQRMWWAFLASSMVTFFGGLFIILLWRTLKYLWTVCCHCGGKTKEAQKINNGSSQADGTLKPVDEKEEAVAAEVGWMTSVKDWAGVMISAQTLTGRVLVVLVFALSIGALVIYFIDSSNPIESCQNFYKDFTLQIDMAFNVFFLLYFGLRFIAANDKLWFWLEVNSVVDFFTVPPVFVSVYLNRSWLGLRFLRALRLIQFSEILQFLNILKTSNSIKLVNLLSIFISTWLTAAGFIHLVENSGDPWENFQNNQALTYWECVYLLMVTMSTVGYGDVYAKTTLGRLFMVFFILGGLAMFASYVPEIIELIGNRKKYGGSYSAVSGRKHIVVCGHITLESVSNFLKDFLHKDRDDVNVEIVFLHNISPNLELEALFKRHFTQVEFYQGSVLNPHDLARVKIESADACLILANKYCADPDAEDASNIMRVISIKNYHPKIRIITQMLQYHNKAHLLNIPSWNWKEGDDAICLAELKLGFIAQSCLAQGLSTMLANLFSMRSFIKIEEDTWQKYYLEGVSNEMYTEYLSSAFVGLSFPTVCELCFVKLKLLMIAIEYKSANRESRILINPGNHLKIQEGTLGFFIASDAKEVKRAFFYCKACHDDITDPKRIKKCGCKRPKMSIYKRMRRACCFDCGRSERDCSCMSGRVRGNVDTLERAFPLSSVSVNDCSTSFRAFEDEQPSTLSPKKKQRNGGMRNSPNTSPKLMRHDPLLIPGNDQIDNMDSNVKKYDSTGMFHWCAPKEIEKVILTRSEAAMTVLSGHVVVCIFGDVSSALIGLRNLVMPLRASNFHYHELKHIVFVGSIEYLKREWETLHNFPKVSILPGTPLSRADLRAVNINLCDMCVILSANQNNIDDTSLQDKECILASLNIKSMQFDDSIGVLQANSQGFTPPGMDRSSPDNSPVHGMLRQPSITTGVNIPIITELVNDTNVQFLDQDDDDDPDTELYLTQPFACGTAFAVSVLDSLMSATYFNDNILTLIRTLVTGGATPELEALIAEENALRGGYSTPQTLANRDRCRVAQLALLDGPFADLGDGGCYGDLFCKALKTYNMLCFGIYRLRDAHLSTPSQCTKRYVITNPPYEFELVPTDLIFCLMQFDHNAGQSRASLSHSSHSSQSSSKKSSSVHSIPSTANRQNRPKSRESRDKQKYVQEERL
Experiment [2] addresses T1, Calcium-activated potassium channel subunit alpha-1. Kind of experiment: Inhibition of human KCNMA1 expressed in HEK293 cells assessed as decrease in open probability at 3 uM under single channel current. Format: cell-based.
Experiment [3] has the same target. Description: Inhibition of human KCNMA1 expressed in HEK293 cells assessed as shift in activation curve to depolarized voltage (deltaV1/2) at 0.3 to 10 uM by inside-out configuration based patch clamp method. Format: cell-based. As to conditions: dose 0.3-10 µM. (In general: Patch clamp records ionic current or voltage across a cell membrane.)
For experiment [4] the target is unchanged. Description: Reversible inhibition of human KCNMA1 expressed in HEK293 cells at 1 uM by whole cell configuration based patch clamp method.
Experiment [5] shares this target. Description: Inhibition of human KCNMA1 expressed in HEK293 cells assessed effect on deactivation kinetics at 1 uM by inside-out configuration based patch clamp method. Format: cell-based.
Experiment [6] shares this target. Description: Inhibition of human KCNMA1 expressed in HEK293 cells assessed as reduction in amplitude current at 1 uM by inside-out configuration based patch clamp method. Format: cell-based.
For experiment [7] the target is unchanged. Description: Inhibition of human KCNMA1 expressed in HEK293 cells assessed as increase in mean closed times at 3 uM at -40 mV (reference value: 33=/-12 ms). Format: cell-based.
The target is the same in experiment [8]. Kind of experiment: Inhibition of human KCNMA1 expressed in HEK293 cells assessed as reduction in voltage activation kinetics at 1 uM by whole cell configuration based patch clamp method.
For experiment [9] the target is unchanged. Description: Inhibition of human KCNMA1 expressed in HEK293 cells assessed as decrease in maximal conductance at 0.3 to 10 uM by inside-out configuration based patch clamp method. Format: cell-based. As to conditions: dose 0.3-10 µM.
For experiment [10] the target is unchanged. Kind of experiment: Inhibition of human KCNMA1 expressed in HEK293 cells assessed as reduction in 100+ mV pulse elicited current by inside-out configuration based patch clamp method. Format: cell-based.
Experiment [11] shares this target. Kind of experiment: Inhibition of human KCNMA1 expressed in HEK293 cells assessed as reduction in maximal conductance at 1 uM by whole cell configuration based patch clamp method.
The target is the same in experiment [12]. Description: Inhibition of human KCNMA1 expressed in HEK293 cells assessed increase in time constant value of voltage activation at 1 uM by inside-out configuration based patch clamp method. Format: cell-based.
For experiment [13] the target is unchanged. Kind of experiment: Inhibition of human KCNMA1 expressed in HEK293 cells assessed as reduction in amplitude current at 10 uM by inside-out configuration based patch clamp method relative to control. Format: cell-based.
For experiment [14] the target is unchanged. Description: Inhibition of human KCNMA1 expressed in HEK293 cells assessed as reduction in unitary conductance at 3 uM (reference value: 242+/-10 pS). Format: cell-based.
Experiment [15] shares this target. Description: Inhibition of human KCNMA1 expressed in HEK293 cells assessed as shift to depolarized potential at 1 uM by whole cell configuration based patch clamp method.

The source made the active and inactive calls. No cut-off for these calls is given here.

As a reminder, the inhibition is the drop in the measured response relative to a control, in per cent. One may read the IC50 as the point on the concentration scale where inhibition reaches its midpoint. Turning to `C=C(C)[C@@H]1CCC(C)=C[C@H]1c1c(O)cc(CCCCC)cc1O` [CANNABIDIOL], the inhibition in experiment [1] stood at 87.4%; in experiment [13], 100%. The inhibition entry in experiment [2], in experiment [3], in [4], in experiment [6], in experiment [8] and in experiment [9] was “Active” in each case. The inhibition result in experiment [11], in experiment [12] and in experiment [15] was “Active” throughout. Besides, in [5], the inhibition entry was “inactive”. In addition, the Time in [7] is 9.11e-05 h; in [14], 182 pS. Further, the IC50 in [10] turned out to be 280 nM.
